Data taken from paper PMC7158045 (BMC Plant Biology, 2020).
Where a name gives a salt, the structure may show the parent alone.

Assays:
Experiment in all cases: biochemical
ZmDRIK1-R187-P492 = target: T1, ZmDRIK1-R187-P492 (Zea mays, UniProt C0P4K9); settings: read-out: dTm B, DSF, Boltzmann fit, 0.1% DMSO
T1 construct: kinase domain, R187-P492
T1 sequence (C0P4K9 1-514): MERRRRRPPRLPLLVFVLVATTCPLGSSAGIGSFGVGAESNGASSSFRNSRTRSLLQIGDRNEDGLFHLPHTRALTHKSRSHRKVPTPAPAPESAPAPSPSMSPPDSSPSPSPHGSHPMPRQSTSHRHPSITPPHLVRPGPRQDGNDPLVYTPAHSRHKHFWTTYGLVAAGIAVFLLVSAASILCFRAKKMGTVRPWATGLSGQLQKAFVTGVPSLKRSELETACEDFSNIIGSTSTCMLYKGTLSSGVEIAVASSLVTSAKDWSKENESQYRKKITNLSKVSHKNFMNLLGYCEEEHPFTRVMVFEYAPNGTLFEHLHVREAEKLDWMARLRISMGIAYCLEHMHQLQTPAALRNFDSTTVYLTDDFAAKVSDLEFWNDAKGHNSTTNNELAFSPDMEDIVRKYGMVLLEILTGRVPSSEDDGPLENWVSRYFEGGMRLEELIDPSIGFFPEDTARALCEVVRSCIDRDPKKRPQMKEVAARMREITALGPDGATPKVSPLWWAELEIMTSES

ZmDRIK1-K217-S514 = target: T2, ZmDRIK1-K217-S514 (Zea mays, UniProt C0P4K9); settings: read-out: dTm B, sheet ZmDRIK1-K217-S514;; DSF, Boltzmann fit, 0.1% DMSO
T2 construct: kinase domain, K217-S514
T2 sequence (C0P4K9 1-514): T1 sequence (C0P4K9 1-514)

[1] = target: T3, ZmDRIK1 (DROUGHT RESPONSIVE INACTIVE KINASE 1), kinase domain (Zea mays, UniProt C0P4K9); settings: read-out: dTm B, sheet ZmDRIK1-R187-S514;; DSF, Boltzmann fit, 0.1% DMSO
T3 construct: gene ZEAMMB73_Zm00001d028770; ZmDRIK1-KD R187-S514 (kinase domain)
T3 sequence (C0P4K9 187-514): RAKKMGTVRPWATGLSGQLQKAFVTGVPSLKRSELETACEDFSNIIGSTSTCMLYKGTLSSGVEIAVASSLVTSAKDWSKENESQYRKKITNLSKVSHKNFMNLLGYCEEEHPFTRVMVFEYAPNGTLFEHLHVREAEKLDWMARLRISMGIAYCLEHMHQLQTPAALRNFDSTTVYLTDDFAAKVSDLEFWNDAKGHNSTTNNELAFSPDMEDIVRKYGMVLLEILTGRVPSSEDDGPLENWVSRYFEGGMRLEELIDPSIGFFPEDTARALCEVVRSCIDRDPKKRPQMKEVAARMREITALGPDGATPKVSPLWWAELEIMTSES

ZmDRIK1-K217-P492 = target: T4, ZmDRIK1-K217-P492 (Zea mays, UniProt C0P4K9); settings: read-out: dTm B, sheet ZmDRIK1-K217-P492;; DSF, Boltzmann fit, 0.1% DMSO
T4 construct: kinase domain, K217-P492
T4 sequence (C0P4K9 1-514): T1 sequence (C0P4K9 1-514)

ΔTm at 10 µM (ZmDRIK1-R187-P492) [°C]	ΔTm at 10 µM (ZmDRIK1-K217-S514) [°C]	ΔTm at 10 µM [1] [°C]	ΔTm at 10 µM (ZmDRIK1-K217-P492) [°C]	SMILES
-0.248	-0.405	0.000298	-0.873	Cc1ccc(-n2nc(C(C)(C)C)cc2NC(=O)Nc2ccc(OCCN3CCOCC3)c3ccccc23)cc1 [BIRB 796 (Doramapimod)]
-0.00337	-0.0855	-0.816	-0.147	CN(C)Cc1cccc(N/C(=C2\C(=O)Nc3cc(C(N)=O)ccc32)c2ccccc2)c1 [BIX 02188]
-0.0835	-0.274	-0.921	0.0556	CN(C)Cc1cccc(N=C(c2ccccc2)c2c(O)[nH]c3cc(C(=O)N(C)C)ccc23)c1 [BIX 02189]
-0.326	-0.33	-0.731	-1.39	Nc1cc(C(F)(F)F)c(-c2cc(N3CCOCC3)nc(N3CCOCC3)n2)cn1 [BKM120 (NVP-BKM120)]
-0.249	-0.226	-0.676	-1.05	CCCCOc1c(C(=O)c2c(F)cc(C)cc2F)c[nH]c2nncc1-2 [BMS-265246]
-0.153	-0.486	-0.926	-0.0998	Cc1ccc2nc(NCCN)c3ncc(C)n3c2c1 [BMS-345541]
-0.284	-0.645	-0.852	-1.5	Cc1cc(N2CCOCC2)cc2[nH]c(-c3c(NC[C@@H](O)c4cccc(Cl)c4)cc[nH]c3=O)nc12 [BMS-536924]
-0.218	-0.662	-1.06	-0.979	CCOc1ccn(-c2ccc(F)cc2)c(=O)c1C(=O)Nc1ccc(Oc2ccnc(N)c2Cl)c(F)c1 [BMS-777607]
0.213	-19	-1.96	-0.717	Nc1nccc(Oc2ccc(NC(=O)c3c[nH]cc(-c4ccc(F)cc4)c3=O)cc2F)c1Cl [BMS-794833]
-1.23	-1.39	-0.711	-1.46	O=C(NCCCNc1nc(Nc2cccc(NC(=O)N3CCCC3)c2)ncc1I)c1cccs1 [BX-795]
-0.165	-0.277	-0.512	-0.986	O=C(Nc1cccc(Nc2ncc(Br)c(NCCc3cnc[nH]3)n2)c1)N1CCCC1 [BX-912]
-0.328	-0.465	-0.448	-0.718	Cc1nc(NC(=O)N2CCC[C@H]2C(N)=O)sc1-c1ccnc(C(C)(C)C(F)(F)F)c1 [BYL719]
-0.129	-0.253	-1.11	-0.927	CCN(CCO)CCCOc1ccc2c(Nc3cc(CC(=O)Nc4cccc(F)c4)[nH]n3)ncnc2c1 [Barasertib (AZD1152-HQPA)]
-1.1	-1.7	-2.89	-4.07	COC(=O)[C@]12CCC(C)(C)C[C@H]1[C@H]1C(=O)C=C3[C@@]4(C)C=C(C#N)C(=O)C(C)(C)[C@@H]4CC[C@@]3(C)[C@]1(C)CC2 [Bardoxolone Methyl]
-0.491	-0.473	-0.814	-1.46	COc1cc(Nc2c(C#N)cnc3cc(OCCCN4CCN(C)CC4)c(OC)cc23)c(Cl)cc1Cl [Bosutinib (SKI-606)]
-0.365	-0.0833	-1.28	-0.796	Cc1cc2c(F)c(Oc3ncnn4cc(OC[C@@H](C)O)c(C)c34)ccc2[nH]1 [Brivanib (BMS-540215)]
-0.504	-0.426	-1.08	-1	Cc1cc2c(F)c(Oc3ncnn4cc(OC[C@@H](C)OC(=O)[C@H](C)N)c(C)c34)ccc2[nH]1 [Brivanib Alaninate (BMS-582664)]
0.882	0.982	0.686	1.78	O=C(/C=C/c1ccc(O)c(O)c1)c1ccc(O)cc1O [Butein]

ΔTm at 10 µM (ZmDRIK1-R187-P492) [°C]	ΔTm at 10 µM (ZmDRIK1-K217-S514) [°C]	ΔTm at 10 µM [1] [°C]	ΔTm at 10 µM (ZmDRIK1-K217-P492) [°C]	SMILES
-0.326	-0.31	-0.612	-0.995	CC[C@H](Nc1ncnc2[nH]cnc12)c1nc2cccc(F)c2c(=O)n1-c1ccccc1 [CAL-101 (Idelalisib)]
-0.325	-0.48	-0.523	-1.15	NC1(Cc2ccc(Cl)cc2)CCN(c2ncnc3[nH]ccc23)CC1 [CCT128930]
-0.353	-0.39	-1.56	-0.83	CN(C)c1ccc(-c2nc3ncc(Cl)c(N4CCN(CC(=O)Nc5nccs5)CC4)c3[nH]2)cc1 [CCT129202]
-0.157	-0.286	-1.09	-0.814	Cc1cc(CN2CCN(c3c(Br)cnc4nc(-c5ccc(N6CCN(C)CC6)cc5)[nH]c34)CC2)no1 [CCT137690]
-0.956	-0.917	-0.0221	-0.207	COc1cc2ncnc(Oc3cccc(NC(=O)Nc4cc(C(C)(C)C(F)(F)F)on4)c3)c2cc1OC [CEP-32496]
-0.284	-0.33	-0.54	-0.95	CN1CCN(c2cccc(Nc3nc4c(-c5ccc(S(C)(=O)=O)cc5)cccn4n3)c2)CC1 [CEP-33779]
-0.389	-0.561	-1.61	-1.51	Cc1c(NC(=O)c2ccc(C(C)(C)C)cc2)cccc1-c1cn(C)c(=O)c(Nc2ccc(C(=O)N3CCOCC3)cc2)n1 [CGI1746]
0.467	0.146	0.221	-1.46	O=C(NC(NC(=S)Nc1ccc(F)c([N+](=O)[O-])c1)C(Cl)(Cl)Cl)C(c1ccccc1)c1ccccc1 (stereo not drawn) [CGK 733]
-0.223	-0.324	-0.711	-0.608	CS(=O)(=O)N1CCc2c(-c3cnc(N)nc3)nc(N3CCOCC3)nc21 [CH5132799]
-0.404	-0.494	-0.639	-0.928	Cc1cnc(-c2cnc(NCCNc3ccc(C#N)cn3)nc2-c2ccc(Cl)cc2Cl)[nH]1 [CHIR-99021 (CT99021) HCl]
-1.55	-0.729	-10.9	-0.472	C=CC(=O)Nc1cccc(Nc2nc(Nc3ccc(Oc4ccnc(C(=O)NC)c4)cc3)ncc2F)c1 [CNX-774]
-0.528	-0.646	-0.903	-1.15	C=CC(=O)Nc1cccc(Nc2nc(Nc3ccc(NC4CN(CCF)C4)cc3OC)ncc2C(F)(F)F)c1 [CNX-2006]
-0.278	-0.448	-0.884	-0.85	C=CC(=O)Nc1cccc(Nc2nc(Nc3ccc(N4CCN(C(C)=O)CC4)cc3OC)ncc2C(F)(F)F)c1 [CO-1686 (AVL-301)]
-0.00299	0.216	-0.398	0.203	COCCOc1ccc2c(c1)ncn2-c1ccc2cccc(N3CCC(N)CC3)c2n1 [CP-673451]
-0.193	-0.357	-0.904	-1.14	COCC(=O)NC/C=C/c1ccc2ncnc(Nc3ccc(Oc4ccc(C)nc4)c(C)c3)c2c1 [CP-724714]
-0.186	-0.263	-0.684	-1.03	C#Cc1cccc(Nc2ncnc3cc(OC)c(OCCCCCCC(=O)NO)cc23)c1 [CUDC-101]
-0.136	-0.228	-0.531	-1.08	COc1ccc(-c2nc(N3CCOCC3)c3sc(CN(C)c4ncc(C(=O)NO)cn4)cc3n2)cn1 [CUDC-907]

SMILES	ΔTm at 10 µM (ZmDRIK1-R187-P492) [°C]	ΔTm at 10 µM (ZmDRIK1-K217-S514) [°C]	ΔTm at 10 µM [1] [°C]	ΔTm at 10 µM (ZmDRIK1-K217-P492) [°C]
O=c1[nH]c2ccc(Cl)cc2c(N[C@@H]2CN3CCC2CC3)c1-c1nc2ccccc2[nH]1 [CHIR-124]	-0.356	-0.3	-0.602	-0.621
